The values that follow come from patent US6271342A, “Sugar-modified cytostatics” (Bayer Aktiengesellschaft, priority 1995, dated 2001).

Where a name gives a salt, the structure may show the parent alone. Where only a bound is given, the exact number is not on record here.

Assay [1] has as its system HT 29. Briefly: Growth inhibition test (MTT) for cytotoxic properties. In kind it is cell-based, human. Conditions: Table 1a, glycoconjugates of batracyline. The protocol:
(§1) Growth Inhibition Test for Determination of the Cytotoxic Properties of Glycoconjugates of Batracyline and of Quinolone-a
(§2) The human colon cell lines SW 480 and HT 29 (ATCC no. CCL 228 and HBT-38) and the mouse melanoma cell line B 16 F 10 were cultured in Roux dishes in RPMI 1640 medium with addition of 10% FCS. The cultures were then trypsinized and taken up in RPMI plus 10% FCS to a cell count of 50,000 cells/ml. 100 μl of cell suspension/well were introduced into a 96 microwell plate and incubated for 1 day at 37° C. in a CO2 incubating cabinet. A further 100 μl of RPMI medium and 1 μl of dimethyl sulphoxide with the test substances were then added. The growth was checked after day 3 and day 6. 40 μl of MTT solution (3-(4,5-dimethylthiazol-2-yl)-2,5-diphenyltetrazoline bromide) with an initial concentration of 5 mg/ml of H2 O were added to each microwave. The plate was incubated for 5 hours in a CO2 incubating cabinet at 37° C. The medium was then sucked off and 100 μl of i-propanol/well were added. After shaking for 30 minutes with 100 μl of H2 O, the extinction was measured at 540 nm with a Titertek Multiskan MCC/340 (Flow).
(§3) The cytotoxic action of the glycoconjugates of batracyline described is shown in Table 1a as the IC50 value in each case for the SW 480 and HT 29 cell lines.

Assay [2] concerns SW 480. Described as above. The class given is cell-based, human. Conditions: Table 1a, glycoconjugates of batracyline. Here is the method:
as §1, §2, §3

In general, IC50 refers to the concentration that gives 50% inhibition. Read a high IC50 as a need for much substance.

For the compound `CO[C@@H]1[C@@H](O)[C@H](Oc2ccc(NC(=S)N[C@@H](CCCCN)C(=O)N[C@H](C)C(=O)Nc3ccc4c(c3)CN3C(=O)c5ccccc5C3=N4)cc2)O[C@H](CO)[C@@H]1OC` [Example 4.5, N-{N^α -[O-(3,4-Di-O-methyl-β-D-galactopyranosyl)-4-hydroxy-phenylamino-thiocarbonyl]-lysyl-D-alanyl}-batracyline], the concentration for half-maximal inhibition (IC50) in assay [1] and in assay [2] was 15 µM each time. On to `COC1C(O)C(C)OC(Oc2ccc(NC(=S)NCCCCC(NC(=S)Nc3ccc(OC4OC(C)C(O)C(OCC(=O)O)C4O)cc3)C(=O)NC(C)C(=O)Nc3ccc4nc5n(c(=O)c4c3)Cc3ccccc3-5)cc2)C1O` [Example 5.1, N-{N^α -[O-(3-O-Carboxymethyl-β-L-fucosyl)-4-hydroxyphenylaminothiocarbonyl] -N^ε -[O-(3-O-methyl-β-L-fucosyl)-4-hydroxyphenylaminothiocarbonyl]-lysyl-D-alanyl}-batracyline], for which the IC50 in assay [1] turned out to be 45 µM; in assay [2] it was 55 µM.

`COC1C(C)OC(Oc2ccc(NC(=S)NCCCCC(NC(=S)Nc3ccc(OC4OC(C)C(OC)C(O)C4O)cc3)C(=O)NC(C)C(=O)Nc3ccc4nc5n(c(=O)c4c3)Cc3ccccc3-5)cc2)C(O)C1O` [Example 6.3, N-{N^α,N^ε -Bis-[O-(4-O-methyl-β-L-fucosyl)-4-hydroxy-phenylamino-thiocarbonyl]-lysyl-D-alanyl}-batracyline]: the IC50 in assay [1] came out at 105 µM; in assay [2], 70 µM. The matching figures for `O=C(O)CO[C@H]1[C@@H](O)[C@@H](CO)O[C@@H](Oc2ccc(NC(=S)NCCCC[C@H](NC(=S)Nc3ccc(O[C@@H]4O[C@H](CO)[C@H](O)[C@H](OCC(=O)O)[C@H]4O)cc3)C(=O)Nc3ccc4nc5n(c(=O)c4c3)Cc3ccccc3-5)cc2)[C@@H]1O` [Example 6.28, N-{N^α,N^ε -Bis-[O-(3-O-carboxymethyl-β-D-galactopyranosyl)-4-hydroxy-phenylamino-thiocarbonyl]-lysyl}-batracyline, di-sodium salt]: 25 µM and 40 µM. For `NC(=O)COC1C(O)C(CO)OC(Oc2ccc(NC(=S)NCCCCC(NC(=S)Nc3ccc(OC4OC(CO)C(O)C(OCC(N)=O)C4O)cc3)C(=O)Nc3ccc4nc5n(c(=O)c4c3)Cc3ccccc3-5)cc2)C1O` [Example 6.29, N-{N^α,N^ε -Bis-[O-(3-O-carbamoylmethyl-β-D-galactopyranosyl)-4-hydroxy-phenylamino-thiocarbonyl]-lysyl}-batracyline] the same measures were 130 µM and 95 µM.

Consider `COC1C(O)C(C)OC(Oc2ccc(NC(=S)Nc3ccc4c(c3)Cn3c-4nc4ccccc4c3=O)cc2)C1O` [Example 7.7, N-[O-(3-O-Methyl-β-L-fucosyl)-4-hydroxy-phenylamino-thiocarbonyl]-batr acyline], for which the IC50 was over 250 µM in assay [1] and 100 µM in assay [2]. For “N-{N-(O-(3-O-Methyl-β-L-fucosyl)-4-hydroxy-phenylamino-thiocarbonyl]-D -alanyl}-batracyline [Example 7.1]” the same measures were 40 µM and 40 µM. The matching figures for “N-{N-[O-(3,4-Di-O-methyl-β-D-galactopyranosyl)-4-hydroxy-phenylamino-t hio-carbonyl]-D-alanyl}-batracyline [Example 7.8]”: 30 µM and 40 µM.

In the case of “N-{N-[O-(3-O-Carbamoylmethyl-β-D-galactopyranosyl)-4-hydroxy-phenylami no-thiocarbonyl]-D-alanyl}-batracyline [Example 7.12]”, the IC50 in assay [1] and in assay [2] was 10 µM throughout.

As to “N-{N-[O-(3-O-Carboxymethyl-β-D-galactopyranosyl)-4-hydroxy-phenylamino -thiocarbonyl]-D-alanyl}-batracyline, sodium salt [Example 7.11]”, the IC50 in assay [1] was determined as 25 µM; in assay [2] it was 30 µM. Regarding “N-{N-[O-(3-O-Carboxymethyl-β-L-fucosyl)-4-hydroxy-phenylamino-thiocarb onyl]-D-alanyl}-batracyline, sodium salt [Example 7.2]”, the half-inhibitory concentration (IC50) came out at 30 µM in assay [1] and 40 µM in assay [2]. For “N-{N-[O-(α-D-Mannopyranosyl)-4-hydroxy-phenylamino-thiocarbonyl]-lysy l-D-alanyl}-batracyline [Example 4.11]” the same measures were 15 µM and 15 µM. The matching figures for “N-{N^α -[-(3-O-Carbamoylmethyl-β-D-galactopyranosyl)-4-hydroxy-phenylamino-t hiocarbonyl]-lysyl-D-alanyl}-batracyline [Example 4.10]”: 30 µM and 30 µM. For “N-{N^α -[-(3-O-Carboxymethyl-β-D-galactopyranosyl)-4-hydroxy-phenylaminothio carbonyl]-N^ε -[O-(3,4-di-O-methyl-β-D-galactopyranosyl)-4-hydroxy-phenylamino-thio carbonyl]-lysyl-D-alanyl}-batracyline, sodium salt [Example 5.13]” the same measures were 40 µM and 20 µM. In the case of “N-{N^α -[O-(3,4-Di-O-methyl-β-D-galactopyranosyl)-4-hydroxy-phenylamino-thio carbonyl]-N^ε -[O-(3-O-(piperidyl-N)-carbonylmethyl-β-D-galactopyranosyl)-4-hydroxy -phenylamino-thiocarbonyl]-lysyl-D-alanyl}-batracyline [Example 5.15]”, the IC50 in assay [1] is 70 µM; in assay [2], over 250 µM. Take “N-{N^α -[O-(3,4-Di-O-methyl-β-D-galactopyranosyl)-4-hydroxy-phenylamino-thio carbonyl]-N^ε -[O-(3-O-carbamoylmethyl-β-D-galactopyranosyl)-4-hydroxy-phenylamino- thiocarbonyl]-lysyl-D-alanyl}-batracyline [Example 5.21]”: the figures for the IC50 in assay [1] and in assay [2] were 80 µM and 60 µM, respectively. In the case of “N-{N^α -[O-(3-O-Carbamoylmethyl-β-D-galactopyranosyl)-4-hydroxy-phenylamino- thiocarbonyl]-N^ε -[O-(3-O-carboxymethyl-β-D-galactopyranosyl)-4-hydroxy-phenylamino-th iocarbonyl]-lysyl-D-alanyl}-batracyline, sodium salt [Example 5.20]”, the IC50 in assay [1] was 30 µM; in assay [2], 50 µM. The matching figures for “N-{N^α -[O-(3-O-Carboxymethyl-β-D-galactopyranosyl)-4-hydroxy-phenylamino-th iocarbonyl]-N^ε -[O-(3,4-di-O-methyl-β-D-galactopyranosyl)-4-hydroxy-phenylamino-thio carbonyl]-lysyl-D-alanyl}-batracyline [Example 5.14]”: 30 µM and 20 µM. As for “N-{N^α -[O-(3-O-Carboxymethyl-β-D-galactopyranosyl)-4-hydroxy-phenylamino-th iocarbonyl]-N^ε -[O-(3-O-carbamoylmethyl-β-D-galactopyranosyl)-4-hydroxy-phenylamino- thiocarbonyl]-lysyl-D-alanyl}-batracyline, sodium salt [Example 5.23]”, the IC50 amounted to 35 µM in assay [1] and 25 µM in assay [2]. Turning to “N-{N^α -[O-(3-O-Carboxymethyl-β-D-galactopyranosyl)-4-hydroxy-phenylamino-th iocarbonyl]-lysyl-D-alanyl}-batracyline, sodium salt [Example 4.9]”, the IC50 in assay [1] worked out at 30 µM; in assay [2], 20 µM.

On to “N-{N^α -[O-(3-O-Methoxycarbonylmethyl-[-D-galactopyranosyl)-4-hydroxy-phenylamino -thiocarbonyl]-lysyl-D-alanyl}-batracyline [Example 4.8]”, for which the IC50 in assay [1] was 40 µM; in assay [2], 50 µM. The matching figures for “N-{N^α -[O-(3-O-Methoxycarbonylmethyl-β-D-galactopyranosyl)-4-hydroxy-phenyl amino-thiocarbonyl]-N^ε -[O-(3-O-carbamoylmethyl-β-D-galactopyranosyl)-4-hydroxy-phenylamino- thiocarbonyl]-lysyl-D-alanyl}-batracyline [Example 5.22]”: 40 µM and 30 µM. The matching figures for “N-{N^α -[O-(3-O-Methoxycarbonylmethyl-β-D-galactopyranosyl)-4-hydroxy-phenyl amino-thiocarbonyl]-N^ε -[O-(3-O-carboxymethyl-β-D-galactopyranosyl)-4-hydroxy-phenylamino-th iocarbonyl]-lysyl-D-alanyl}-batracyline, sodium salt [Example 5.19]”: 25 µM and 35 µM. As for “N-{N^ε -[O-(3-O-Methyl-β-D-galactopyranosyl)-4-hydroxy-phenylamino-thiocarbo nyl]-lysyl-D-alanyl}-batracyline, trifluoroacetate [Example 3.14]”, the midpoint of inhibition in assay [2], the IC50, lay at 40 µM. The same measure, in the same setting: for “N-{N^ε [O-(3-O-Methyl-α-D-mannopyranosyl)-4-hydroxy-phenylamino-thiocarbony l]-lysyl-D-alanyl}-batracyline, trifluoroacetate [Example 3.26]” the value was 50 µM; for “N-{N^ε-[O-( 3,4-Dideoxy-β-D-galactopyranosyl)-4-hydroxy-phenylamino-thiocarbonyl] -lysyl-D-alanyl}-batracyline, trifluoroacetate [Example 3.23]”, 50 µM.
